Laboratory results as given in US8344008B2 (Janssen Pharmaceutica NV, priority 2007, dated 2013).

Molecular target: T1, recombinant human LTA4 hydrolase (rhLTA4H) (Homo sapiens, UniProt P09960)
T1 construct: made in house; host or cells: Spodoptera frugiperda (Sf-9) cells, baculovirus (pFastBac1)
T1 sequence (P09960 1-611): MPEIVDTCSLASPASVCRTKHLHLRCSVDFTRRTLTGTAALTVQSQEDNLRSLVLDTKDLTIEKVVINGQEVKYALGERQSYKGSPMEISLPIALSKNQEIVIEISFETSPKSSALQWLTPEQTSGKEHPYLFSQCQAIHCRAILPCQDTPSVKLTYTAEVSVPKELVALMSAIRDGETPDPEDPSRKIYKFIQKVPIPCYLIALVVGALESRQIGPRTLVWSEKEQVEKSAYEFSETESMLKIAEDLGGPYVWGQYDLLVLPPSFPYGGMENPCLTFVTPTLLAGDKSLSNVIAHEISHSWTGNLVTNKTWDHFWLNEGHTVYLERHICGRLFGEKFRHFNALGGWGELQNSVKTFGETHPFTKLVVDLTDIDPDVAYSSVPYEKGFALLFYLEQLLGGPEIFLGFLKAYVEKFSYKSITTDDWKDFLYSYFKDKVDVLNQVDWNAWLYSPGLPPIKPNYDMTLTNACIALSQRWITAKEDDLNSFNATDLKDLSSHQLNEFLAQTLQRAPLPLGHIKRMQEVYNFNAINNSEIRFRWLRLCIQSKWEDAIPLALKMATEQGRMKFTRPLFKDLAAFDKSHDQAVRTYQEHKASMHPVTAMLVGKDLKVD
Experiment: Recombinant Human LTA4 Hydrolase Assay for LTA4 Hydrolase Inhibitor Activity
Assay type: biochemical
Conditions: average of results obtained; LTB4 quantified by enzyme-linked immunoassay
Procedure, shortened: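 Baculovirus/Sf-9-expressed human LTA4 hydrolase (36 ng) preincubated with compound 10 min at rt in 0.1 M potassium phosphate pH 7.4, 5 mg/mL fatty-acid-free BSA. Reaction started with 9 ng LTA4 free acid, run 10 min at rt; LTB4 measured by enzyme immunoassay, IC50 from 4-parameter fit.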

Row | Compound | Ki [nM]
1 | CS(=O)(=O)N1CC2CCC(C1)N2Cc1ccc(Oc2nc3cccc(Cl)c3s2)cc1 [Example 174, meso-7-Chloro-2-[4-(3-methanesulfonyl-3,8-diaza-bicyclo[3.2.1]oct-8-ylmethyl)-phenoxy]-benzothiazole] | 196
2 | O=C(N1C[C@@H]2C[C@H]1CN2Cc1ccc(Oc2nc3ccccc3s2)cc1)C1(O)CC1 [Example 11, (S,S)-{5-[4-(Benzothiazol-2-yloxy)-benzyl]-2,5-diaza-bicyclo[2.2.1]hept-2-yl}-(1-hydroxy-cyclopropyl)-methanone] | 13
3 | CS(=O)(=O)N1C[C@H]2C[C@@H]1CN2Cc1ccc(Oc2nc3cc(Cl)ccc3s2)cc1 [Example 181, (R,R)-5-Chloro-2-[4-(5-methanesulfonyl-2,5-diaza-bicyclo[2.2.1]hept-2-ylmethyl)-phenoxy]-benzothiazole] | 1470
4 | meso-endo-[4-(6-Chloro-benzothiazol-2-yloxy)-benzyl]-(8-methanesulfonyl-8-aza-bicyclo[3.2.1]oct-3-yl)-amine [Example 228] | 1590
5 | CC(=O)N[C@H]1C[C@H]2CC[C@@H](C1)N2CCOc1ccc(Oc2nc3c(F)cccc3s2)cc1 [Example 273, meso-endo-N-(8-{2-[4-(4-Fluoro-benzothiazol-2-yloxy)-phenoxy]-ethyl}-8-aza-bicyclo[3.2.1]oct-3-yl)-acetamide] | 16
6 | CC(=O)N[C@H]1C[C@H]2CC[C@@H](C1)N2Cc1ccc(Cc2nc3ccccc3o2)cc1 [Example 6, meso-endo-N-[8-(4-Benzooxazol-2-ylmethyl-benzyl)-8-aza-bicyclo[3.2.1]oct-3-yl]-acetamide] | 50
7 | CC(C)(O)C(=O)N1C[C@H]2C[C@@H]1CN2Cc1ccc(Oc2nc3ccccc3s2)cc1 [Example 24, (R,R)-1-{5-[4-(Benzothiazol-2-yloxy)-benzyl]-2,5-diaza-bicyclo[2.2.1]hept-2-yl}-2-hydroxy-2-methyl-propan-1-one] | 52
8 | CS(=O)(=O)N1C[C@@H]2C[C@H]1CN2Cc1ccc(Oc2nc3cc(Cl)ccc3s2)cc1 [Example 206, (S,S)-5-Chloro-2-[4-(5-methanesulfonyl-2,5-diaza-bicyclo[2.2.1]hept-2-ylmethyl)-phenoxy]-benzothiazole] | 1100
9 | NC(=O)N[C@H]1C[C@H]2CC[C@@H](C1)N2CCOc1ccc(Oc2nc3c(F)cccc3s2)cc1 [Example 262, meso-endo-(8-{2-[4-(4-Fluoro-benzothiazole-2-yloxy)-phenoxy]-ethyl}-8-aza-bicyclo[3.2.1]oct-3-yl)-urea] | 12
10 | NC(=O)N1C[C@@H]2C[C@H]1CN2Cc1cccc(Oc2nc3ccccc3s2)c1 [Example 33, (S,S)-5-[3-(Benzothiazol-2-yloxy)-benzyl]-2,5-diaza-bicyclo[2.2.1]heptane-2-carboxylic acid amide] | 164
11 | O=C(CC(F)(F)F)N1CC2CN(Cc3ccc(Oc4nc5ccccc5s4)cc3)CC2C1 (centres unmarked) [Example 113, 1-{5-[4-(Benzothiazol-2-yloxy)-benzyl]-hexahydro-pyrrolo[3,4-c]pyrrol-2-yl}-3,3,3-trifluoro-propan-1-one] | 100
12 | CS(=O)(=O)N1C[C@H]2C[C@@H]1CN2CCOc1ccc(Oc2nc3cc(F)ccc3s2)cc1 [Example 168, (R,R)-5-Fluoro-2-{4-[2-(5-methanesulfonyl-2,5-diaza-bicyclo[2.2.1]hept-2-yl)-ethoxy]-phenoxy}-benzothiazole] | 128
13 | CC(=O)N1CC2CCN(Cc3ccc(Oc4nc5ccccc5s4)cc3)CC2C1 (centres unmarked) [Example 90, 1-{5-[4-(Benzothiazol-2-yloxy)-benzyl]-octahydro-pyrrolo[3,4-c]pyridin-2-yl}-ethanone] | 21
14 | CC(=O)N1CCC2CN(Cc3ccc(Oc4nc5ccccc5s4)cc3)CC21 (centres unmarked) [Example 87, 1-{5-[4-(Benzothiazol-2-yloxy)-benzyl]-hexahydro-pyrrolo[3,4-b]pyrrol-1-yl}-ethanone] | 36
15 | CS(=O)(=O)N[C@H]1C[C@H]2CC[C@@H](C1)N2CCc1ccc(Oc2nc3ccc(F)cc3s2)cc1 [Example 277, meso-endo-N-(8-{2-[4-(6-Fluoro-benzothiazol-2-yloxy)-phenyl]-ethyl}-8-aza-bicyclo[3.2.1]oct-3-yl)-methanesulfonamide] | 17
16 | NC(=O)N[C@@H]1C[C@H]2CC[C@@H](C1)N2CCOc1ccc(Oc2nc3cccc(F)c3s2)cc1 [Example 282, meso-exo-(8-{2-[4-(7-Fluoro-benzothiazol-2-yloxy)-phenoxy]-ethyl}-8-aza-bicyclo[3.2.1]oct-3-yl)-urea] | 8

Row | Compound | Ki [nM]
17 | COCC(=O)N1C[C@@H]2C[C@H]1CN2Cc1ccc(Oc2nc3ccccc3s2)cc1 [Example 41, (S,S)-1-{5-[4-(Benzothiazol-2-yloxy)-benzyl]-2,5-diaza-bicyclo[2.2.1]hept-2-yl}-2-methoxy-ethanone] | 15
18 | CS(=O)(=O)N1[C@@H]2CC[C@H]1C[C@H](NCc1ccc(Oc3nc4ccc(F)cc4s3)cc1)C2 [Example 205, meso-exo-[4-(6-Fluoro-benzothiazol-2-yloxy)-benzyl]-(8-methanesulfonyl-8-aza-bicyclo[3.2.1]oct-3-yl)-amine] | 394
19 | CC(C)(C)OC(=O)N1CC(C(=O)N2C[C@@H]3C[C@H]2CN3CCOc2ccc(Oc3nc4ccccc4s3)cc2)C1 [Example 67, (S,S)-3-(5-{2-[4-(Benzothiazol-2-yloxy)-phenoxy]-ethyl}-2,5-diaza-bicyclo[2.2.1]heptane-2-carbonyl)-azetidine-1-carboxylic acid tert-butyl ester] | 201
20 | O=C(c1ccc[nH]1)N1C[C@@H]2C[C@H]1CN2Cc1ccc(Oc2nc3ccccc3s2)cc1 [Example 62, (S,S)-{5-[4-(Benzothiazol-2-yloxy)-benzyl]-2,5-diaza-bicyclo[2.2.1]hept-2-yl}-(1H-pyrrol-2-yl)-methanone] | 36
21 | CS(=O)(=O)N1C[C@H]2C[C@@H]1CN2Cc1ccc(Oc2nc3cccc(F)c3s2)cc1 [Example 189, (R,R)-7-Fluoro-2-[4-(5-methanesulfonyl-2,5-diaza-bicyclo[2.2.1]hept-2-ylmethyl)-phenoxy]-benzothiazole] | 375
22 | CC(=O)N[C@@H]1C[C@H]2CC[C@@H](C1)N2CCc1ccc(Oc2nc3cccc(F)c3s2)cc1 [Example 254, meso-exo-N-(8-{2-[4-(7-Fluoro-benzothiazol-2-yloxy)-phenyl]-ethyl}-8-aza-bicyclo[3.2.1]oct-3-yl)-acetamide] | 115
23 | NC(=O)N1C[C@H]2C[C@@H]1CN2CCc1ccc(Oc2nc3ccc(Cl)cc3s2)cc1 [Example 246, (R,R)-5-{2-[4-(6-Chloro-benzothiazol-2-yloxy)-phenyl]-ethyl}-2,5-diaza-bicyclo[2.2.1]heptane-2-carboxylic acid amide] | 40
24 | NC(=O)N[C@H]1C[C@H]2CC[C@@H](C1)N2Cc1ccc(Oc2nc3cc(Cl)ccc3s2)cc1 [Example 259, meso-endo-{8-[4-(5-Chloro-benzothiazol-2-yloxy)-benzyl]-8-aza-bicyclo[3.2.1]oct-3-yl}-urea] | 58
25 | CS(=O)(=O)N[C@H]1C[C@H]2CC[C@@H](C1)N2CCOc1ccc(Oc2nc3ccc(Cl)cc3s2)cc1 [Example 222, meso-endo-N-(8-{2-[4-(6-Chloro-benzothiazol-2-yloxy)-phenoxy]-ethyl}-8-aza-bicyclo[3.2.1]oct-3-yl)-methanesulfonamide] | 130
26 | CC(=O)N[C@@H]1C[C@H]2CC[C@@H](C1)N2CCOc1ccc(Oc2nc3ccc(F)cc3s2)cc1 [Example 227, meso-exo-N-(8-{2-[4-(6-Fluoro-benzothiazol-2-yloxy)-phenoxy]-ethyl}-8-aza-bicyclo[3.2.1]oct-3-yl)-acetamide] | 8
27 | CC(=O)N1CC2CCC(C1)N2Cc1ccc(Oc2nc3ccccc3s2)cc1F [Example 77, meso-1-{8-[4-(Benzothiazol-2-yloxy)-2-fluoro-benzyl]-3,8-diaza-bicyclo[3.2.1]oct-3-yl}-ethanone] | 12
28 | NC(=O)N1CC2CCN(Cc3ccc(Oc4nc5ccccc5s4)cc3)C2C1 (centres unmarked) [Example 136, 1-[4-(Benzothiazol-2-yloxy)-benzyl]-hexahydro-pyrrolo[3,4-b]pyrrole-5-carboxylic acid amide] | 24
29 | CC(C)(O)C(=O)N1C[C@@H]2C[C@H]1CN2CCc1ccc(Oc2nc3ccccc3s2)cc1 [Example 17, (S,S)-1-(5-{2-[4-(Benzothiazol-2-yloxy)-phenyl]-ethyl}-2,5-diaza-bicyclo[2.2.1]hept-2-yl)-2-hydroxy-2-methyl-propan-1-one] | 11
30 | NCC(=O)N1CCC2CN(Cc3ccc(Oc4nc5ccccc5s4)cc3)CC21 (centres unmarked) [Example 95, 2-Amino-1-{5-[4-(benzothiazol-2-yloxy)-benzyl]-hexahydro-pyrrolo[3,4-b]pyrrol-1-yl}-ethanone] | 36
31 | Cc1ccc2nc(Oc3ccc(CCN4[C@@H]5CC[C@H]4C[C@@H](NC(N)=O)C5)cc3)sc2c1 [Example 261, meso-endo-(8-{2-[4-(6-Methyl-benzothiazol-2-yloxy)-phenyl]-ethyl}-8-aza-bicyclo[3.2.1]oct-3-yl)-urea] | 100
32 | CC(=O)N1CC2CCC(C1)N2CCOc1ccc(Oc2nc3c(Cl)cccc3s2)cc1 [Example 247] | 167
